{"source": "the supplement of paper PMC10307832", "assay_in_all_cases": "relative viability (nuclei count vs DMSO), 5 days (fraction); higher = more cells survive", "key": {"[1]": {"compound": "COc1cc(N2CCC(N3CCN(C)CC3)CC2)ccc1Nc1ncc(Cl)c(Nc2ccccc2S(=O)(=O)C(C)C)n1 [NVP-TAE684] + C[C@@H](Oc1cc(-c2cnn(C3CCNCC3)c2)cnc1N)c1c(Cl)ccc(F)c1Cl [Crizotinib] (partner 1 µM)", "method_in_brief": "(§1)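 Each reported value is a median over duplicate plates. It expresses relative viability: treated-well nuclei count divided by vehicle-well nuclei count. Lung cancer cell lines in 1536-well plates were dosed by pin tool a day after seeding, alone with one drug or with a fixed anchor-drug dose plus five library-drug doses (not always all listed) in √10 steps, and nuclei were counted after 5 days.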"}, "[2]": {"compound": "COc1cc(N2CCC(N3CCN(C)CC3)CC2)ccc1Nc1ncc(Cl)c(Nc2ccccc2S(=O)(=O)C(C)C)n1 [NVP-TAE684] + Cc1nc(Nc2ncc(C(=O)Nc3c(C)cccc3Cl)s2)cc(N2CCN(CCO)CC2)n1 [Dasatinib] (partner 0.075 µM)", "method_in_brief": "as §1"}, "[3]": {"compound": "COc1cc2/c(=N/c3ccc(Br)cc3F)nc[nH]c2cc1OCC1CCN(C)CC1 [Vandetanib] + N=C(N)NC(=N)NCCc1ccccc1 [Phenformin] (partner 250 µM)", "method_in_brief": "as §1"}, "[4]": {"compound": "COc1cc2/c(=N/c3ccc(Br)cc3F)nc[nH]c2cc1OCC1CCN(C)CC1 [Vandetanib] + O=C(CCCCCCC(=O)Nc1ccccc1)NO [Vorinostat] (partner 1 µM)", "method_in_brief": "as §1"}}}
{"cell line": "UMC-11", "values": [{"measurement": "relative viability", "setting": "[1]; first compound 0.2 µM", "value": 0.45}, {"measurement": "relative viability", "setting": "[1]; first compound 0.6325 µM", "value": 0.459}, {"measurement": "relative viability", "setting": "[1]; first compound 2 µM", "value": 0.145}, {"measurement": "relative viability", "setting": "[2]; first compound 0.2 µM", "value": 0.577}, {"measurement": "relative viability", "setting": "[2]; first compound 0.6325 µM", "value": 0.415}, {"measurement": "relative viability", "setting": "[2]; first compound 2 µM", "value": 0.284}, {"measurement": "relative viability", "setting": "[3]; first compound 0.02 µM", "value": 0.3}, {"measurement": "relative viability", "setting": "[3]; first compound 0.06325 µM", "value": 0.308}, {"measurement": "relative viability", "setting": "[3]; first compound 0.2 µM", "value": 0.33}, {"measurement": "relative viability", "setting": "[3]; first compound 0.6325 µM", "value": 0.289}, {"measurement": "relative viability", "setting": "[3]; first compound 2 µM", "value": 0.335}, {"measurement": "relative viability", "setting": "[4]; first compound 0.02 µM", "value": 0.43}, {"measurement": "relative viability", "setting": "[4]; first compound 0.06325 µM", "value": 0.373}, {"measurement": "relative viability", "setting": "[4]; first compound 0.2 µM", "value": 0.399}, {"measurement": "relative viability", "setting": "[4]; first compound 0.6325 µM", "value": 0.342}, {"measurement": "relative viability", "setting": "[4]; first compound 2 µM", "value": 0.364}]}
